Results as given in US20140140969A1, “METHODS AND COMPOSITIONS FOR MUSCULAR DYSTROPHIES” (Sangamo BioSciences, Inc., priority 2012, published 2014).

Tests used:
[1] = system: human myoblasts; assay: In vitro selection of MGMT^P140K-2A-GFP gene-targeted myoblasts with BG/BCNU; format: cell-based
Source text: Consequently, we next verified whether expression from the integrated MGMT^P140K gene, along with the eGFP reporter gene to facilitate tracking of transduced cells, was sufficient to confer myoblasts protection against treatments with BG and BCNU (FIG. 4A). Using IDLV to deliver a MGMT^P140K-eGFP template DNA flanked by CCR5 homology arms, we obtained 40-50% gene addition in myoblasts in the absence of drug selection (FIG. 4B and C). However, to fully evaluate the selection potential of the BG/BCNU combination, we thought it would be more appropriate to work with a population containing a much lower level of gene addition. As such, we generated two populations of gene-targeted myoblasts containing either 3% or 35% of cells expressing the MGMT^P140K-2A-GFP gene using non-transduced cells for dilution. Both populations were exposed to 20 μM BG for one hour followed by increasing doses of BCNU (10, 25, 50 and 100 μM) for two hours (FIG. 4D).
Myoblasts were then allowed to recover for one week after which the proportion of eGFP positive cells was analyzed by flow cytometry, a procedure defined as one cycle of drug selection. […] After three cycles of selection using the same concentration of BCNU, up to 45% of the myoblasts were positive for eGFP, representing a 15-fold enrichment over the initial population. […] In comparison, when starting with a population containing already 35% of gene-targeted myoblasts, over 85% of the cells were expressing eGFP after only one cycle of selection using 50 μM of BCNU (FIG. 4D).
Four weeks post-transduction, gene modified myoblasts containing the MGMT^P140K-2A-GFP cassette inserted at the endogenous CCR5 locus were treated with 50 μM O6BG for two hours followed by increasing doses (range from 10-100 μM) of BCNU for one hour. Cells were then washed with PBS and allowed to proliferate in the presence of […] for seven days before being analyzed by FACS. Where indicated, this procedure was repeated up to two more times. Cells were maintained in the presence of O6BG during their post-treatment expansion to inactivate the endogenous MGMT gene.

[2] = system: CCR5-specific ZFN pair (exon 3) (artificial); assay: cell_activity; conditions: Cel-1 assay in human myoblasts; cleavage over 30%
[3] = starting population 3%, three cycles, 100 μM BCNU

Compound	effect of additional cycle of selection ([1]; starting population 3%, beyond three cycles)	proportion of MGMT^P140K-2A-GFP expressing cells ([1]; starting population 3%, one cycle, 20 μM BG then 100 μM BCNU)	enrichment over the initial population [1, 3]	proportion of myoblasts positive for eGFP [1, 3]	proportion of cells expressing eGFP ([1]; starting population 35%, one cycle, 50 μM BCNU)	activity [2]
O=NN(CCCl)C(=O)NCCCl [BCNU, 1,3-bis(2-chloroethyl)-N-nitrosourea]	did not allow us to further increase the proportion of eGFP positive cells	11%	15 fold	up to 45%	over 85%	
CCR5 locus exon 3 ZFN target						> 30%
